In patent publication US9795602B2, “Polycyclic-carbamoylpyridone compounds and their pharmaceutical use” (Gilead Sciences, Inc., priority 2014, dated 2017) one finds inhibition, EC50 and CC50 data, which are given here for eleven compounds.

Common to all, as to type: cell-based
One data set concerns the target PXR (NR1I2) (Homo sapiens (Human), UniProt O75469). Put plainly: Human PXR activation assay (luciferase reporter, DPX2 cells). The settings on record: human; 15 uM; DPX2 cells; % Emax relative to rifampicin, adjusted for DMSO background; read-out: PXR % inh at 15 uM (adjusted). As to the method: Luciferase Reporter Gene Assay.
A stably transformed tumor cell line (DPX2) was plated on 96-well microtiter plates. […]. The number of viable cells was determined and the reporter gene activity was assessed. […]
A general note: In a reporter assay the amount or activity of a reporter protein is the signal.

The next data set relates to HIV-IIIb. Put plainly: Antiviral assay in MT4 cells. The conditions noted are these: MT4 cells, HIV-IIIb, 5 days, read-out: EC50. Here is the method: 1 mL aliquots of 2×10^6 MT4 cells are pre-infected for 1 and 3 hours respectively at 37° C. with 25 μL (MT4) or of either cell growth medium (mock-infected) or a fresh 1:250 dilution of an HIV-IIIb concentrated ABI stock (0.004 m.o.i. for MT4 cells). Infected and uninfected cells are diluted in cell growth medium and 35 μL of 2000 (for MT4) cells is added to each well of the assay plates.
Assay plates were then incubated in a 37° C. incubator. After 5 days of incubation, 25 μL of 2× concentrated CellTiter-Glo™ Reagent (catalog # G7573, Promega Biosciences, Inc., Madison, Wis.) was added to each well of the assay plate. Cell lysis was carried out by incubating at room temperature for 2-3 minutes, and then chemiluminescence was read using the Envision reader (PerkinElmer).

Data set [1] is described as follows: Cytotoxicity (CC50) in MT4 cells, mock-infected. The settings on record: human. Here is the method:
Infected and uninfected cells are diluted in cell growth medium and 35 μL of 2000 (for MT4) cells is added to each well of the assay plates. Assay plates were then incubated in a 37° C. incubator. After 5 days of incubation, 25 μL of 2× concentrated CellTiter-Glo™ Reagent (catalog # G7573, Promega Biosciences, Inc., Madison, Wis.) was added to each well of the assay plate. Cell lysis was carried out by incubating at room temperature for 2-3 minutes, and then chemiluminescence was read using the Envision reader (PerkinElmer).

Where [2] appears, read: Human immunodeficiency virus 1, IIIB, MT4, 120 h.

SMILES strings stand for the structures. Read-outs that look alike come from different tables or passages of the source.

Sequence of PXR (NR1I2) (O75469 whole entry): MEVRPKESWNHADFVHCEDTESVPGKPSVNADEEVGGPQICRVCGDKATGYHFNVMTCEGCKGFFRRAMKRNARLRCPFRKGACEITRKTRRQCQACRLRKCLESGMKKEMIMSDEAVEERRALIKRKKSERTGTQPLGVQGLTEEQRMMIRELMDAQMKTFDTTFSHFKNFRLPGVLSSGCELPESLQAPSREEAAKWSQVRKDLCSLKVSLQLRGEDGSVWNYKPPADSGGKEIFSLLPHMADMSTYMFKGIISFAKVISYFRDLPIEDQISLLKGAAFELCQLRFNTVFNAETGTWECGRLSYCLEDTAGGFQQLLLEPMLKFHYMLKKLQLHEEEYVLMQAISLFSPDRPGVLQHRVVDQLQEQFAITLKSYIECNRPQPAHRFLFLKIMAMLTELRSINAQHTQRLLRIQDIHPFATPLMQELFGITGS

For the compound `CCN1C(=O)c2c(O)c(=O)c(C(=O)NCc3c(F)cc(F)cc3F)cn2[C@@H]2COC[C@@H]21` [Compound 45], the inhibition at 24 h, 15 µM on PXR (NR1I2) stood at 33%. Also, the EC50 (commonly the concentration at which the effect is half-maximal) in the data set with HIV-IIIb (setting [2]) is 0.00726 µM. Moreover, in data set [1] (mock-infected (uninfected)), the CC50 (commonly the concentration that lowers cell viability or growth by half) at 5 days was 36.7 µM.

With `CN1C(=O)c2c(O)c(=O)c(C(=O)NCc3c(F)cc(F)cc3F)cn2[C@@H]2COC[C@H]21` [Compound 46], at PXR (NR1I2), the inhibition at 24 h, 15 µM was 8%. In addition, in the data set on HIV-IIIb (setting [2]), the EC50 worked out at 0.00293 µM. This compound also displayed a CC50 at 5 days in data set [1] (mock-infected (uninfected)) of 28.2 µM.

On to `CCN1C(=O)c2c(O)c(=O)c(C(=O)NCc3ccc(F)c(C)c3F)cn2[C@H]2CCOC[C@H]21` [Compound 47], for which the inhibition at 24 h, 15 µM at PXR (NR1I2) was determined as 9%. The EC50 in the data set on HIV-IIIb (setting [2]) is 0.0057 µM. Moreover, the CC50 at 5 days in data set [1] (mock-infected (uninfected)) amounted to 27.2 µM.

On to `CN1C(=O)c2c(O)c(=O)c(C(=O)NCc3c(F)cc(F)cc3F)cn2[C@H]2CCOC[C@H]21` [Compound 48], for which the inhibition at 24 h, 15 µM on PXR (NR1I2) was found to be 1%. Also, the EC50 in the data set on HIV-IIIb (setting [2]) came out at 0.0043 µM. This compound yielded a CC50 at 5 days in data set [1] (mock-infected (uninfected)) of 32.3 µM.

Turning to `CN1C(=O)c2c(O)c(=O)c(C(=O)NCc3ccc(F)c(Cl)c3F)cn2[C@H]2CCOC[C@H]21` [Compound 49], the inhibition at 24 h, 15 µM at PXR (NR1I2) was 1%. The 50% effective concentration (EC50) in the data set with HIV-IIIb (setting [2]) turned out to be 0.00332 µM. The CC50 at 5 days in data set [1] (mock-infected (uninfected)) came to 12 µM.

In the case of `O=C(NCc1ccc(F)c(Cl)c1F)c1cn2c(c(O)c1=O)C(=O)N(CC(F)(F)F)[C@@H]1COCC[C@@H]12` [Compound 50], on PXR (NR1I2), the inhibition at 24 h, 15 µM stood at 1%. Further, the EC50 in the data set on HIV-IIIb (setting [2]) was determined as 0.00268 µM. Moreover, the CC50 at 5 days in data set [1] (mock-infected (uninfected)) was found to be 48.4 µM.

As to `CN1C(=O)c2c(O)c(=O)c(C(=O)NCc3c(F)cc(F)cc3F)cn2[C@H]2C[C@@H]3C[C@@H]3[C@H]21` [Compound 51, (6aR,6bS,7aS,8aS)-4-hydroxy-6-methyl-3,5-dioxo-N-(2,4,6-trifluorobenzyl)-5,6,6a,6b,7,7a,8,8a-octahydro-3H-cyclopropa[4,5]cyclopenta[1,2-e]pyrido[1,2-a]pyrazine-2-carboxamide], the inhibition at 24 h, 15 µM on PXR (NR1I2) is 33%. Also, in the data set with HIV-IIIb (Human immunodeficiency virus 1, 120 h), the EC50 stood at 0.00528 µM. Further, the CC50 at 5 days in data set [1] (mock-infected) stood at 6.71 µM.

As to `CN1C(=O)c2c(O)c(=O)c(C(=O)NCc3ccc(F)c(Cl)c3F)cn2[C@H]2C[C@@H]3C[C@@H]3[C@H]21` [Compound 52, (6aR,6bS,7aS,8aS)-N-(3-chloro-2,4-difluorobenzyl)-4-hydroxy-6-methyl-3,5-dioxo-5,6,6a,6b,7,7a,8,8a-octahydro-3H-cyclopropa[4,5]cyclopenta[1,2-e]pyrido[1,2-a]pyrazine-2-carboxamide], the inhibition at 24 h, 15 µM on PXR (NR1I2) stood at 24%. For the same compound, in the data set on HIV-IIIb (setting [2]), the EC50 came to 0.00495 µM. This compound also registered a CC50 at 5 days in data set [1] (mock-infected) of 2.83 µM.

Take `CN1C(=O)c2c(O)c(=O)c(C(=O)NCc3c(F)cc(F)cc3F)cn2[C@H]2[C@@H]3C[C@@H]3C[C@H]21` [Compound 53, (6aR,7aR,8aR,8bS)-4-hydroxy-6-methyl-3,5-dioxo-N-(2,4,6-trifluorobenzyl)-5,6,6a,7,7a,8,8a, 8b-octahydro-3H-cyclopropa[3,4]cyclopenta[1,2-e]pyrido[1,2-a]pyrazine-2-carboxamide]: the inhibition at 24 h, 15 µM at PXR (NR1I2) turned out to be 46%. The EC50 in the data set on HIV-IIIb (setting [2]) was determined as 0.00604 µM. In data set [1] (mock-infected), the CC50 at 5 days came to 13.3 µM.

`C[C@@H]1OCC[C@H]2[C@@H]1N(C)C(=O)c1c(O)c(=O)c(C(=O)NCc3c(F)cc(F)cc3F)cn12` [Compound 54, (4S,4aS,11aS)-7-hydroxy-4,5-dimethyl-6,8-dioxo-N-(2,4,6-trifluorobenzyl)-1,2,4,4a,5,6,8,11a-octahydropyrano[3,4-e]pyrido[1,2-a]pyrazine-9-carboxamide]: the inhibition at 24 h, 15 µM at PXR (NR1I2) stood at 8%. Besides, the EC50 with HIV-IIIb (setting [2]) was found to be 0.00292 µM. This compound also yielded a CC50 at 5 days in data set [1] (mock-infected) of 23.9 µM.

With `C[C@@H]1OCC[C@H]2[C@@H]1N(C)C(=O)c1c(O)c(=O)c(C(=O)NCc3ccc(F)c(Cl)c3F)cn12` [Compound 55, (4S,4aS,11aS)-N-(3-chloro-2,4-difluorobenzyl)-7-hydroxy-4,5-dimethyl-6,8-dioxo-1,2,4,4a,5,6,8,11a-octahydropyrano[3,4-e]pyrido[1,2-a]pyrazine-9-carboxamide], on PXR (NR1I2), the inhibition at 24 h, 15 µM was 2%. Also, in the data set with HIV-IIIb (setting [2]), the EC50 was 0.00191 µM. In data set [1] (mock-infected), this compound showed a CC50 at 5 days of 9.66 µM.
